Calls of active or inactive are those of the source.
Tests used:
[1] = mitochondrial function rescue without frataxin homolog – Friedreich's ataxia, plus single-dose screen, dose response (AID 1465); format: functional;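 note: yeast depleted of Yfh1p frataxin homolog grown on glycerol needing respiration; WST-1 tetrazolium dye reduction as measure of cellular dehydrogenase metabolic activity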
[2] = biological target: T1, Alkaline phosphatase, tissue-nonspecific isozyme (Homo sapiens, UniProt P05186)
T1 sequence (P05186 whole entry): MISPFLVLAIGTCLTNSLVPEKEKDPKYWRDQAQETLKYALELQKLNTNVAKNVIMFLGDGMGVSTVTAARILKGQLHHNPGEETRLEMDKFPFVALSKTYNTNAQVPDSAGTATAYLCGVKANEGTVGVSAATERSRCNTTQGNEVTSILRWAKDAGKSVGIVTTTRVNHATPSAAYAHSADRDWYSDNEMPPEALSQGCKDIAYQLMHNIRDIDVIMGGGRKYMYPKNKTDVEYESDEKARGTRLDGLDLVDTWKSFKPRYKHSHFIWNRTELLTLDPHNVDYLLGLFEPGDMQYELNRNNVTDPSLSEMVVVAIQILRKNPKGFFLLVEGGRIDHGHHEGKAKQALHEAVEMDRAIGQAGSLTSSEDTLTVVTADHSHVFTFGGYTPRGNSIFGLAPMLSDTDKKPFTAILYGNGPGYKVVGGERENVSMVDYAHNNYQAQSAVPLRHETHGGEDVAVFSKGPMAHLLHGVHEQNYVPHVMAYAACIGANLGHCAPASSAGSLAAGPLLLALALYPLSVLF

[3] = biological target: Luciferin 4-monooxygenase (Photinus pyralis, UniProt P08659); experiment: Counter Screen for Luciferase-based Assay Positives. [Related pubchem assays: 620, 618, 411 ]
Chain of Luciferin 4-monooxygenase (P08659 whole entry): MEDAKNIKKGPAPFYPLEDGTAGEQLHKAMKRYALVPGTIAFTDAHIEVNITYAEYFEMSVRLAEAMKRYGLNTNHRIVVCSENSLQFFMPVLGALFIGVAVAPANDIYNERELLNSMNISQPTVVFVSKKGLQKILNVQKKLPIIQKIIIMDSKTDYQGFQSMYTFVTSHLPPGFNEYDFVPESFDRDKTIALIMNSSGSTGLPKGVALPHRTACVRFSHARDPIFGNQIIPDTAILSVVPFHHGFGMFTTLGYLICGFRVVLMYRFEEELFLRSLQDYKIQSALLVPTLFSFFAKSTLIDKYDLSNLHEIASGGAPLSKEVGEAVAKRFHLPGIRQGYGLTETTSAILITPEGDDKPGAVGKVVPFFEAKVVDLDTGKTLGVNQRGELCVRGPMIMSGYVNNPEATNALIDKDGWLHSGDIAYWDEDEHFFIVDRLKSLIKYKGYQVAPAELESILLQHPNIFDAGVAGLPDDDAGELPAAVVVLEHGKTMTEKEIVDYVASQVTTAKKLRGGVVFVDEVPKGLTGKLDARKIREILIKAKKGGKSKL

[4] = tested on: HT-1080; experiment: HT1080 cell viability loss – fluorescence readout (AID 620); format: functional, cell-based; conditions: Homo sapiens
[5] = biological target: Bcl-2-like protein 10 (Homo sapiens, UniProt Q9HD36); experiment: Concentration-response of Bcl-B inhibitors by biochemical FP with TR3 (AID 1243); format: functional
Chain of Bcl-2-like protein 10 (Q9HD36 whole entry): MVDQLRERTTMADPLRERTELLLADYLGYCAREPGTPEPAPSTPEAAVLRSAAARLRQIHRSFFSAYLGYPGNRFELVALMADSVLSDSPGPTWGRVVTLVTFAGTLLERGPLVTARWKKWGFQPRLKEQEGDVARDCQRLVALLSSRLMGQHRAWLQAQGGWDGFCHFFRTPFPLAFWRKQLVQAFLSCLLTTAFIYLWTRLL

[6] = biological target: Neuropeptide Y receptor type 1 (Homo sapiens, UniProt P25929); format: functional;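 note: HEK293 cells with a CNG channel challenged with NPY then isoproterenol; potency as antagonist that reverses NPY suppression of cAMP signal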
Chain of Neuropeptide Y receptor type 1 (P25929 whole entry): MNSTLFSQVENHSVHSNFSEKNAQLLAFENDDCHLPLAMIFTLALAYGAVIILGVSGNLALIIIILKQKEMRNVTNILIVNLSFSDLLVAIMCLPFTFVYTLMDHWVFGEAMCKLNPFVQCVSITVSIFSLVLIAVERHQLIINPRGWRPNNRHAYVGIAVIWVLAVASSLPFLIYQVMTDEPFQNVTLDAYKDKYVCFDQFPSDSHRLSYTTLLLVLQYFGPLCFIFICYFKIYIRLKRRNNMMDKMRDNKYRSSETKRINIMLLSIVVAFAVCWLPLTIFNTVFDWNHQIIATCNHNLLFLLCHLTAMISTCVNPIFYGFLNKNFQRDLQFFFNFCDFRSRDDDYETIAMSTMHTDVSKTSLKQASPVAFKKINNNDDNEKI

[7] = biological target: Neuropeptide Y receptor type 2 (Homo sapiens, UniProt P49146); format: functional, cell-based;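 note: HEK293 cells expressing the receptor and a CNG channel; stimulus was NPY near EC95 followed by isoproterenol to raise cAMP; antagonist potency measured as restoring cAMP signal that NPY suppresses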
Chain of Neuropeptide Y receptor type 2 (P49146 whole entry): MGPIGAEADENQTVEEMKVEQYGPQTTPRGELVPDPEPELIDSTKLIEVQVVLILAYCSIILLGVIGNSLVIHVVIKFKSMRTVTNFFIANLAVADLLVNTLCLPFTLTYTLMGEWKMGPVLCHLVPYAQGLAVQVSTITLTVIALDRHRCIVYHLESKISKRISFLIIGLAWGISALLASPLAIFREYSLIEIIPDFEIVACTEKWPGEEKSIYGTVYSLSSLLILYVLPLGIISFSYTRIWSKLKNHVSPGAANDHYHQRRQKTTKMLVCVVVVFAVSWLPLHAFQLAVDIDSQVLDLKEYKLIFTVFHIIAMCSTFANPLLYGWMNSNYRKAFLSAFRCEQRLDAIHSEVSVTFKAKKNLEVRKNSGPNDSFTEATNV

[8] = biological target: T2, Kappa-type opioid receptor (Homo sapiens, UniProt P41145); format: functional
T2 sequence (P41145 whole entry): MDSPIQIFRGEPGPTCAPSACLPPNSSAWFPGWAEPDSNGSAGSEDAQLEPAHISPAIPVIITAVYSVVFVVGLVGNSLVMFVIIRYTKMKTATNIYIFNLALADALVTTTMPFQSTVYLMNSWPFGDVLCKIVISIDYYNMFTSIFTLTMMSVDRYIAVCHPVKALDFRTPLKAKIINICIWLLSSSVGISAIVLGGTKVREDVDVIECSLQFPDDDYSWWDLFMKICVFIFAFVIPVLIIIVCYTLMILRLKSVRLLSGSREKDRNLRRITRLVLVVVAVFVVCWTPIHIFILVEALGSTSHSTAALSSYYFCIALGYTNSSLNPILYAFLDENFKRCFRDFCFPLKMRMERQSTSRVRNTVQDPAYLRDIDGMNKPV

[9] = biological target: Beta-galactosidase (Escherichia coli, UniProt Q8VNN2); format: functional
[10] = biological target: T2, Kappa-type opioid receptor; format: functional; remark: listed apart in the source
[11] = biological target: T3, Microphthalmia-associated transcription factor (Homo sapiens, UniProt O75030); experiment: reducers of TRPM1 reporter luminescence, concentration series – cell-based, SK-MEL-5, cherry-picked, set 3, MITF inhibitor project, dose response (AID 493073); format: functional;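 note: SK-MEL-5 melanoma cells with luciferase driven by the MITF target TRPM1 promoter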
T3 sequence (O75030 whole entry): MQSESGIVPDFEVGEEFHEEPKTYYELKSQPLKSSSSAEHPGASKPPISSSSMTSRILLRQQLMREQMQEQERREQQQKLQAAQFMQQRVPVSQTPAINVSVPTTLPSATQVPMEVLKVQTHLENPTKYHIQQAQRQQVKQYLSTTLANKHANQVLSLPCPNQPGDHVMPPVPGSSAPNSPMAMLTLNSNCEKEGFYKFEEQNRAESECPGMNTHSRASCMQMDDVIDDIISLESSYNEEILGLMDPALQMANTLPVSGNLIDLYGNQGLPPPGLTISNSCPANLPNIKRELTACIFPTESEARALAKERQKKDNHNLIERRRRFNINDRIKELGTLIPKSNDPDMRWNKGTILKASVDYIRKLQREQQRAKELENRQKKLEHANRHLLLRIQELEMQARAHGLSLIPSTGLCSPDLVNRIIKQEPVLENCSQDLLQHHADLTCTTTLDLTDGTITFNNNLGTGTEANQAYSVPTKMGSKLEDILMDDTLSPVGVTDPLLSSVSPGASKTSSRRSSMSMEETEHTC

[12] = Fluorescence-based cell-based high throughput dose response assay for inhibitors of the interaction of nucleotide-binding oligomerization domain containing 2 (NOD2) and the receptor-interacting serine-threonine kinase 2 (RIPK2).; format: functional; conditions: Homo sapiens
[13] = biological target: Beta Lactamase (Pseudomonas aeruginosa, UniProt Q932Y6); experiment: BLA reporter interference, concentration series – BLA reporter cells, FRET fluorescence, artefact control for NOD2-RIPK2 interaction inhibitor project, dose response (AID 651552); format: functional, cell-based
Chain of Beta Lactamase (Q932Y6 whole entry): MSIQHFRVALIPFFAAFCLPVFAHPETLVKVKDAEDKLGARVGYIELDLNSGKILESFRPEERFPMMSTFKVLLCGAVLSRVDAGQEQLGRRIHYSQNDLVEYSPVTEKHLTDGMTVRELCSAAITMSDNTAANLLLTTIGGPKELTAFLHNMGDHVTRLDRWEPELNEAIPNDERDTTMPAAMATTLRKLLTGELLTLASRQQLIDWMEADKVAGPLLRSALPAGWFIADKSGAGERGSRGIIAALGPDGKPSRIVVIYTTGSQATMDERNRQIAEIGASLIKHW

[14] = viability loss in HeLa cells – cytotoxicity control for MgcRacGAP inhibitor project, dose response (AID 624300); format: functional
[15] = biological target: T4, Rac GTPase-activating protein 1 (Homo sapiens, UniProt Q9H0H5); experiment: blockers of MgcRacGAP-driven Rac1 GTP hydrolysis – biochemical, ADP Hunter fluorescence, primary and confirmatory, confirmation (AID 624330); format: functional
T4 sequence (Q9H0H5 whole entry): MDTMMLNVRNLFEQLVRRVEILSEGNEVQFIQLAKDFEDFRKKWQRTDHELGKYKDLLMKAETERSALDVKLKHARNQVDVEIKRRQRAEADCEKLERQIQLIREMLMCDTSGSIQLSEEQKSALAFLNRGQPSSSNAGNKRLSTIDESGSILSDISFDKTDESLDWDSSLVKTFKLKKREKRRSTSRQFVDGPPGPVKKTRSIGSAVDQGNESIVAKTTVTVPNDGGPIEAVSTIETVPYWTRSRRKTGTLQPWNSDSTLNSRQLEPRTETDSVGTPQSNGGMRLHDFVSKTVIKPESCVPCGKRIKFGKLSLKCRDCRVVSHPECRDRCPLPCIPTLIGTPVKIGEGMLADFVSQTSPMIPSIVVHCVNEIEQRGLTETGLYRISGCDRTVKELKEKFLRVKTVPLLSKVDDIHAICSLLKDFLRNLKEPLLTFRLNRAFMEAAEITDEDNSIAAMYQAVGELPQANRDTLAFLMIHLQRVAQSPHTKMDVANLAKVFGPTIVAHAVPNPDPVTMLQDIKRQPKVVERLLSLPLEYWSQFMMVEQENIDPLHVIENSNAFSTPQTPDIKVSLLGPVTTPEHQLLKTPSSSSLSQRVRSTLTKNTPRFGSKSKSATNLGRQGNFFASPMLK

[16] = biological target: Mothers against decapentaplegic homolog 3 (Homo sapiens, UniProt P84022); experiment: blockers of Smad3 complex formation in lysate – cell lysate, secondary confirmation, chemiluminescent ELISA, HEK293 lysate, dose response (AID 1058); format: functional
Chain of Mothers against decapentaplegic homolog 3 (P84022 whole entry): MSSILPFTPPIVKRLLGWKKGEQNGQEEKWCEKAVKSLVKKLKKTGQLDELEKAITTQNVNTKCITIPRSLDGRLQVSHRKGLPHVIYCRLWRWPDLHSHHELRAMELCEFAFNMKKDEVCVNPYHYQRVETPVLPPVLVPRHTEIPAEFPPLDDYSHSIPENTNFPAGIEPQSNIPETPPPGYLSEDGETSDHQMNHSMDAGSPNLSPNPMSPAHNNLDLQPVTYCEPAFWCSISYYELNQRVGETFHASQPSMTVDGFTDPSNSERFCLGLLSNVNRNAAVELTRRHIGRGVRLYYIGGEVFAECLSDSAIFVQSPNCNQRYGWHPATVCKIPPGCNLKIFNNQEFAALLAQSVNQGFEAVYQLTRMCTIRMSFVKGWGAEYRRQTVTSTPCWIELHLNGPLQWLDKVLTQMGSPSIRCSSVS

[17] = biological target: T5, SUMO-activating enzyme (Homo sapiens, UniProt Q9UBT2); experiment: blockers of UBC9-mediated SUMO conjugation – biochemical, AlphaScreen, SUMOylation inhibitor project, confirmation (AID 2018); format: functional
T5 sequence (Q9UBE0 whole entry, the tested form may be a part): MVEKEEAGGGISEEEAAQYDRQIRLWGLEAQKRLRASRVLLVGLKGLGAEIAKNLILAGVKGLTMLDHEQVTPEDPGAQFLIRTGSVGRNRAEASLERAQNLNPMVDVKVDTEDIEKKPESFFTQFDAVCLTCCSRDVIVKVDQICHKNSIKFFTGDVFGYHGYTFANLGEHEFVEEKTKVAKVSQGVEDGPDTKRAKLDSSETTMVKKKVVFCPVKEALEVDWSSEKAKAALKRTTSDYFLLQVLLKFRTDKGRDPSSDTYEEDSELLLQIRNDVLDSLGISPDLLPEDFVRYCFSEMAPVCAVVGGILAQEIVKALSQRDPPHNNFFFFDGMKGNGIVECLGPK
T5 sequence (Q9UBT2 whole entry, the tested form may be a part): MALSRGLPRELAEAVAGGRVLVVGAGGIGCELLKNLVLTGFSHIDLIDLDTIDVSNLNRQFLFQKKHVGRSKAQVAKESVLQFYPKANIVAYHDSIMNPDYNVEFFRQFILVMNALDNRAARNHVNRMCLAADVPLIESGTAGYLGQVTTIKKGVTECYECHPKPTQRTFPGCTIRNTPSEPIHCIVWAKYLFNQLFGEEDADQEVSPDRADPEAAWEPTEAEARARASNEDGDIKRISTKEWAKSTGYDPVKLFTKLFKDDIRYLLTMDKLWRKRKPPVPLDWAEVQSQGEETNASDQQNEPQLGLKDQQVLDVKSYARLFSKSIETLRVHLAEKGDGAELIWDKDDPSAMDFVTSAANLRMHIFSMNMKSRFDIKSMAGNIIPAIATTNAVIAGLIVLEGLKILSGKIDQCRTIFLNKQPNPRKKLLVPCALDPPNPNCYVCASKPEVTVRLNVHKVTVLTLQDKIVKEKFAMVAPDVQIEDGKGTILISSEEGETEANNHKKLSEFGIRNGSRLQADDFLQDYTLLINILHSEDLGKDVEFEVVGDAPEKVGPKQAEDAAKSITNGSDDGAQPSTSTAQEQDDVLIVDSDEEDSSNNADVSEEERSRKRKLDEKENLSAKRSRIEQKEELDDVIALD

[18] = CCR5-tropic HIV-1 fusion blockers – cell-based, CCR5-tropic Env, dose response (AID 2279); format: functional
[19] = biological target: T5, SUMO-activating enzyme; experiment: blockers of SAE1/SAE2–UBC9 SUMO transfer – biochemical, HTRF, uHTS, primary screen (AID 2006); format: protein-complex assay
[20] = biological target: T6, Calpain-2 catalytic subunit (Sus scrofa, UniProt P43367); experiment: m-calpain protease blockers, concentration series – biochemical, fluorogenic peptide substrate, dose response (AID 1420); format: functional
T6 sequence (P43367 whole entry): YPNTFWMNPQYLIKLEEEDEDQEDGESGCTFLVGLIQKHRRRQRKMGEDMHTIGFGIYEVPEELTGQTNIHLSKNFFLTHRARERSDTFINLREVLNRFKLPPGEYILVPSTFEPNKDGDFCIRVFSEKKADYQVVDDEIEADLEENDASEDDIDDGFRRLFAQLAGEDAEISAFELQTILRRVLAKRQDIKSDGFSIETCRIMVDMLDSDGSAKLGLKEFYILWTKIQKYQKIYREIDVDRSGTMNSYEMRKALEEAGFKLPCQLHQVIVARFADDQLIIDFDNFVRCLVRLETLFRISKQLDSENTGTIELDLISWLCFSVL

[21] = biological target: Induced myeloid leukemia cell differentiation protein Mcl-1 (Homo sapiens, UniProt Q07820); format: functional
Chain of Induced myeloid leukemia cell differentiation protein Mcl-1 (Q07820 whole entry): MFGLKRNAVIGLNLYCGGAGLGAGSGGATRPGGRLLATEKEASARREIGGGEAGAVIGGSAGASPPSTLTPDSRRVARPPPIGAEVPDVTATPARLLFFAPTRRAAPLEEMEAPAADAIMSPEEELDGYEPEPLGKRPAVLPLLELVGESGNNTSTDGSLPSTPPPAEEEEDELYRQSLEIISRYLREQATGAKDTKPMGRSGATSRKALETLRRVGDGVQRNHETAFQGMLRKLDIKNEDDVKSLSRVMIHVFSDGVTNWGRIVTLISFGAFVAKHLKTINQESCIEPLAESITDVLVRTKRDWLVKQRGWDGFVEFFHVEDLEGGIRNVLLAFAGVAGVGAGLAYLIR

[22] = luciferase reporter signal suppression in cells – H4 neuroglioma cells, luminescence, dose response (AID 1990); format: functional, cell-based
[23] = tested on: BJ; experiment: BJ-TERT fibroblast viability loss – cell-based, RAS-independent, luminescence, dose response (AID 1933); format: functional; conditions: Homo sapiens
[24] = Luminescence Cell-Based Dose Response HTS to Identify Inhibitors of 5'UTR Stem-Loop Driven Prion Protein mRNA Translation in H4 Neuroglioblastoma Cells. [Related pubchem assays: 1827 (Project Summary), 1813 (Primary HTS)]; format: functional
[25] = tested on: Vero; experiment: mammalian cell viability reduction – secondary assay, cytotoxicity control for West Nile virus antiviral project, dose response (AID 1650); format: functional; conditions: Chlorocebus sabaeus
[26] = alpha-synuclein stem-loop luciferase translation blockers – H4 neuroglioma cells, luminescence, confirmation (AID 1988); format: functional, cell-based
[27] = tested on: BJ; experiment: cells; format: functional, cell-based; conditions: Homo sapiens
[28] = Luminescence-based counterscreen assay for KLF5 inhibitors: dose response cell-based high throughput screening assay to identify cytotoxic compounds using the IEC-6 intestinal epithelial cell line. [Related pubchem assays: 1700 (Primary screen.), 1834 (Confirmation screen.), 1858 (Summary AID.), 1905 (Counterscreen.)]; format: functional
[29] = tested on: BJ; experiment: BJ-TERT-LT-ST fibroblast viability loss – cell-based, RAS-independent, luminescence, dose response (AID 1935); format: functional; conditions: Homo sapiens;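 note: BJ fibroblasts immortalized with TERT plus LT and ST oncogenes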
[30] = DRD fibroblast viability loss – cell-based, non-viral oncogenic, luminescence, dose response (AID 1934); format: functional; conditions: Homo sapiens
[31] = Luminescence Cell-Based Dose Retest to Confirm Inhibitors of Cancer Stem Cells. [Related pubchem assays (depositor defined):AID2717, AID2721]; format: functional, Homo sapiens
[32] = HEK-293T viability loss after treatment – luminescence, T-cell screen hits, cytotoxicity control for TCR NF-kB inhibitor project, dose response (AID 489026); format: functional, cell-based;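 note: cells exposed to compound about 14 hours before the viability readout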
[33] = tested on: Vero; experiment: cells; format: functional, cell-based; conditions: Chlorocebus sabaeus
[34] = tested on: BJ; experiment: growth inhibition of engineered Ras-driven BJ cells – cell-based, alamar blue fluorescence, cherrypicked samples, dose response (AID 2631); format: functional; conditions: Homo sapiens;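 note: confirmatory dose-response assay in RAS-dependent BJ fibroblasts engineered with TERT, LT and ST, with cytotoxicity read by fluorescence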
[35] = tested on: Vero; experiment: cells; format: functional; conditions: Chlorocebus sabaeus
[36] = biological target: Paired box protein Pax-8 (Homo sapiens, UniProt Q06710); experiment: PAX8 transcriptional activity inhibition in RMG-I – RMG-I cells, luciferase, cherry-pick, dose response (AID 687027); format: functional, cell-based;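 note: luciferase reporter driven by Pax8 target thyroperoxidase promoter measured by SteadyGlo luminescence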
Chain of Paired box protein Pax-8 (Q06710 whole entry): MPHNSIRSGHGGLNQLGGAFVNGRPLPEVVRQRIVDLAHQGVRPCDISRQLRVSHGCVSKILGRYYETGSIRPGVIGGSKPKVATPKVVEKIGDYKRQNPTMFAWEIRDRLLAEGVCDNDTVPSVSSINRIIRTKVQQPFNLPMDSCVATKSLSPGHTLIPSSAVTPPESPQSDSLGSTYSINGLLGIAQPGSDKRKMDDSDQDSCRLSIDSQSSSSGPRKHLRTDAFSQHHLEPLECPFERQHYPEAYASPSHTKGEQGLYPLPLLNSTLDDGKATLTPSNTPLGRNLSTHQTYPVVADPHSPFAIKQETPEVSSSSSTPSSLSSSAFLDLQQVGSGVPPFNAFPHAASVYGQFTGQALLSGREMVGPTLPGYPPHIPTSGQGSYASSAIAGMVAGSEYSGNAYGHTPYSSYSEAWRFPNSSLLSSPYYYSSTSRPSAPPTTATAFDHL

[37] = tested on: HeLa; experiment: Cytotoxicity counterscreen assay for transcriptional activators of heat shock protein 70 (Hsp70). [Related pubchem assays: 1203, 1252 ]; format: functional; conditions: Homo sapiens;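 note: cells exposed to compound for 16 hours before readout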

Compound: CCCOc1ccc(C2NC(S)=NC(c3ccccc3)=C2C(=O)Nc2ccc(C)cc2)cc1OC (stereo not drawn)
- EC50 [1]: > 100 µM (active)

Compound: COCCNC(=O)CCC(=O)NNc1nc2ccccc2c2nc(-c3ccccc3)nn12
- EC50 [2]: 82 µM (not active)

Compound: CCc1nnc(NC(=O)c2ccc(OC)cc2OC)s1
- EC50 [3]: > 100 µM (not active)
- EC50 [4]: > 50 µM (not active)

Compound: COc1ccc(OC)c(C=NNC(=O)c2cc[n+](CC(=O)c3ccccc3)cc2)c1
- EC50 [5]: 1.35 µM (active)

Compound: N#CC(C#N)=C1C=CC=CN1/C(=C\c1ccco1)C(=O)c1ccc(Cl)cc1
- IC50 [6]: 4.08 µM (active)
- IC50 [7]: 3.06 µM (active)
- IC50 [8]: 3.64 µM (active)
- EC50 [9]: > 31.5 µM (inactive)
- IC50 [10]: 16.5 µM
- AC50 [11]: 6.85 µM (active)
- IC50 [12]: 1.13 µM (active)
- IC50 [13]: 45.9 µM (inactive)
- CC50 [14]: 100 µM (active)
- IC50 [15]: 121 µM (active)

Compound: COc1ccc(C(c2cc3c(cc2O)OCO3)N2CCCC2)cc1 (stereo not drawn)
- IC50 [16]: 14.6 µM (not active)

Compound: O=[N+]([O-])c1cccc(S(=O)(=O)Nc2nc3ccccc3nc2Nc2cccc(S(=O)(=O)N3CCCCC3)c2)c1
- IC50 [17]: 4.59 µM (active)
- IC50 [18]: 6.03 µM (active)
- IC50 [19]: 20.1 µM (active)
- IC50 [20]: 4.49 µM (not active)
- IC50 [21]: 5.85 µM (active)

Compound: C[C@@H]1O[C@@H](O[C@H]2C[C@@H](O)[C@]3(CO)[C@H]4[C@H](O)C[C@]5(C)[C@@H](C6COC(=O)C6)CC[C@]5(O)[C@@H]4CC[C@]3(O)C2)[C@H](O)[C@H](O)[C@H]1O (stereo partly drawn)
- EC50 [22]: 0.251 µM (active)
- EC50 [23]: 0.405 µM (inconclusive)
- EC50 [24]: 0.132 µM (active)
- CC50 [25]: 1.91 µM (active)
- EC50 [26]: 0.102 µM (active)
- EC50 [27]: 4.77 µM (inconclusive)
- IC50 [28]: > 39.8 µM (not active)
- EC50 [29]: 2.78 µM (inconclusive)
- EC50 [30]: 0.44 µM (active)
- AC50 [31]: 1.28 µM (active)
- AC50 ([31]; Homo sapiens): 1.46 µM (active)
- IC50 [32]: > 80 µM (inactive)
- IC50 [33]: < 0.05 µM (active)
- EC50 [34]: 0.39 µM (active)
- CC50 [35]: 4.84 µM (active)
- AC50 [36]: 5.38 µM (active)

Compound: Cc1cc(C)nc(SCc2nnc(SCC(=O)Nc3cc(C(F)(F)F)ccc3Cl)o2)n1
- CC50 [37]: > 99 µM (not active)

From ChEMBL document CHEMBL1201862, “PubChem BioAssay data set” (2004)
